In patent US4665053A, “Peptide derivatives, the preparation and their use as elastase inhibitors” (Centre National de la Recherche Scientifique, priority 1983, dated 1987):
Residues, ends and D or L forms follow the SMILES beside them. *: point of attachment. Oleoyl = CCCCCCCC/C=C\CCCCCCCC(=O)*

Columns and labels:
pancreatic elastase [1] = target: T1, pancreatic elastase (Sus scrofa, UniProt P00772); assay: Resistance of pretreated radiolabelled elastin to hydrolysis by pancreatic elastase; assay type: biochemical, hog; conditions: elastin pretreated 24 hours, washed, then 0.05 mg pancreatic elastase; molar ratio inhibitor/enzyme 5 × 10^4
T1 sequence (P00772 27-266): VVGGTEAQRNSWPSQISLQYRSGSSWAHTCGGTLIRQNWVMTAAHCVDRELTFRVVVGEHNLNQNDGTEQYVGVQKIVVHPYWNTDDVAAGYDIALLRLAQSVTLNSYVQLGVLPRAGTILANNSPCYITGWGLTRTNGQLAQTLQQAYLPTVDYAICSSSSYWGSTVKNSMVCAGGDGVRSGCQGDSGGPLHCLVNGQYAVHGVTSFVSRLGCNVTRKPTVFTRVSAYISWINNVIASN
Experimental: (1c) Elastin pretreated with these substances is partially resistant to enzymatic hydrolysis by the elastases.
For these tests, elastin has been radiolabelled with tritium borohydride NaBH4, specific activity: 1.7×10^5 cmp/mg.
1 mg of elastin is treated with […] of a solution of different compounds in 1 ml of Tris HCl buffer, pH-8.0, for 24 hours; the mixture is centrifuged and the insoluble elastin washed with 1 ml of buffer. 0.05 mg of pancreatic elastase is then added and hydrolysis of the polymer is quantified by measurement of the radioactive peptides liberated during the course of the hydrolysis.

[2] = target: T2, human leucocytic elastase (Homo sapiens, UniProt P08246); assay: Inhibition of purified leucocytic elastase, hydrolysis of synthetic paranitroanilide substrates; assay type: biochemical; conditions: for Percent inhibition: Leucocytic elastase 10×10^-9 M, molar ratio inhibitor/enzyme 4 × 10^4, 15 minutes pre-incubation; for elastase inhibitor (conclusion in words): conclusion on elastases in general
T2 construct: purified human leucocytic elastase starting from the spleen; from tissue; host or cells: human spleen
T2 sequence (P08246 30-267): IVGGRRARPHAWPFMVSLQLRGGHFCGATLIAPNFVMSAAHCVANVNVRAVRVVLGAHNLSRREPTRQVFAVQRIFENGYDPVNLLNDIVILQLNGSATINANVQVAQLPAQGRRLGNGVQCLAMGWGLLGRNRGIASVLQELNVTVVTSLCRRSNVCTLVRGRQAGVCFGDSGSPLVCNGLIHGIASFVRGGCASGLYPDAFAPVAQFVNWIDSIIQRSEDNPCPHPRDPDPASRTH
Experimental: (§1) Purified elastases employed: hog pancreatic elastase (120 U/mg) and purified human leucocytic elastase starting from the spleen.
(§2) Molar concentration of these enzymes: pancreatic elastase: 4×10^-9 M; leucocytic elastase: 10×10^-9 M.
(§3) The enzymatic activity of these elastases is followed by hydrolysis of specific synthetic substrates: N-succinoyltrialanine paranitroanilide, acetyl-bis alanylprolyl-alanine paranitroanilide at a final concentration of 1.25 mM in a Tris/HCl buffer, pH=8-8.6. The variation in optical density at 410 nm is followed directly in a Beckman type Acta C III spectrophotometer.
(§4) In the inhibition tests, the oleoyl compounds are pre-incubated 15 minutes with the elastases before determing the residual enzymatic activities.

hog pancreatic elastase = target: T3, hog pancreatic elastase (Sus scrofa, UniProt P00772); assay: Inhibition of purified pancreatic elastase, hydrolysis of synthetic paranitroanilide substrates; assay type: biochemical; conditions: Pancreatic elastase 4×10^-9 M; molar ratio inhibitor/enzyme 4 × 10^4; 15 minutes pre-incubation
T3 construct: Purified elastases employed: hog pancreatic elastase (120 U/mg); host or cells: pancreas, by the enzyme's name only
T3 sequence (P00772 27-266): as the sequence (P00772 27-266) above
Experimental: as §1, §2, §3, §4

pancreatic elastase [3] = target: T1, pancreatic elastase; assay: In vivo inhibition of degradation of cutaneous elastic fibers induced by intradermal injection of pancreatic elastase; set-up: host or cells: exogenous enzyme injected into rabbit skin; conditions: rabbit skin, intradermal pretreatment, histology and quantitative morphometry
Experimental: 2. In vivo study of the inhibiting action of Oleoyl-bis-alanyl-proline-alanine towards the enzymatic degradation of cutaneous elastic fibers induced by intradermal injection of pancreatic elastase
For these tests, young Garenne rabbits (1 month) have been employed. 3 types of intradermal injections (volume: 0.25 ml; solvent: phosphate buffer, pH 7.0) have been performed on the backs of the test animals.
1. Control injection: injection of 0.25 ml of phosphate buffer only;
2. Injection of hog pancreatic elastase: 10 micrograms (1.2 units […]) in 0.25 ml of buffer; and
3. Injections of 50-250 micrograms of Ol--(Ala)2 --Pro--Ala (8×10^-8 to 3×10^-7 mole) in 0.25 ml of buffer followed by an injection at the same site of 10 micrograms (1.2 units, 4×10^-10 mole) of pancreatic elastase in 0.25 ml of buffer.
Different samples of rabbit skin are then treated in histology in order to permit visualization of elastic fibers.
The histologic observation and studies of quantitative morphometry reveal: […]

Row | Compound | Percent inhibition relative to samples without pretreatment (pancreatic elastase [1]) | Percent inhibition [2] | elastase inhibitor (conclusion in words) [2] | Percent inhibition (hog pancreatic elastase) | elastic tissue preserved (pancreatic elastase [3]; molar ratio inhibitor/enzyme 2×10^2) | elastic tissue preserved (pancreatic elastase [3]; molar ratio inhibitor/enzyme 10^3)
1 | CCCCCCCC/C=C\CCCCCCCC(=O)N[C@@H](C)C(=O)N[C@@H](C)C(=O)N1CCC[C@H]1C(=O)N[C@H](C(=O)O)C(C)C [Ol(Ala)2 Pro Valine, Oleoyl-L-Alanyl-L-Alanyl-L-Prolyl-L-Valine] (Oleoyl-AAPV-OH) | 46% | 51% | act as elastase inhibitors | – | – | –
2 | CCCCCCCC/C=C\CCCCCCCC(=O)N[C@@H](C)C(=O)N[C@@H](C)C(=O)N1CCC[C@H]1C(=O)N[C@@H](C)C=O [Ol(Ala)2 Pro Alaninal, Oleoyl-L-Alanyl-L-Alanyl-L-Prolyl-L-Alaninal] (Oleoyl-AAPA-aldehyde) | 98% | 90% | act as elastase inhibitors | 85% | – | –
3 | CCCCCCCC/C=C\CCCCCCCC(=O)N[C@@H](C)C(=O)N[C@@H](C)C(=O)N1CCC[C@H]1C(=O)N[C@@H](C)C(=O)O [Ol(Ala)2 Pro Alanine, Oleoyl-L-Alanyl-L-Alanyl-L-Prolyl-L-Alanine] (Oleoyl-AAPA-OH) | – | 5% | act as elastase inhibitors | 15% | 40-60% | 60-80%

Other lines, results leading:

Row | Percent inhibition relative to samples without pretreatment (pancreatic elastase [1]) | Percent inhibition [2] | elastase inhibitor (conclusion in words) [2] | Percent inhibition (hog pancreatic elastase) | elastic tissue preserved (pancreatic elastase [3]; molar ratio inhibitor/enzyme 2×10^2) | elastic tissue preserved (pancreatic elastase [3]; molar ratio inhibitor/enzyme 10^3) | Compound
4 | 0% | – | – | – | – | – | CC(C)[C@H](NC(=O)[C@@H]1CCCN1C(=O)[C@H](C)NC(=O)[C@H](C)N)C(=O)O [H(Ala)2 Pro Valine, L-Alanyl-L-Alanyl-L-Prolyl-L-Valine, reference compound] (H-AAPV-OH)
5 | 0% | – | – | – | – | – | C[C@H](N)C(=O)N[C@@H](C)C(=O)N1CCC[C@H]1C(=O)N[C@@H](C)C(=O)O [H(Ala)2 Pro Alanine, L-Alanyl-L-Alanyl-L-Proyl-Alanine, reference compound] (H-AAPA-OH)
